How the values were obtained:
[1] = target: T1, CDK1:Cyclin-B (Homo sapiens, UniProt P06493); test: CDK1 Screening Assay; assay type: biochemical
T1 construct: purchased New England Biolabs 6020; host or cells: insect cells
Experimental: A kinase reaction mixture was prepared containing 50 mM Tris-HCl pH=8, 10 mM MgCl2, 0.1 mM Na3PO4, 1 mM DTT, 10 μM ATP, 0.025 μM biotinylated histone-H1 peptide substrate (also referred to herein as a CDK-1 peptide substrate, see substrate table) and 0.2 μCuries per well ^33P-γ-ATP (2000–3000 Ci/mmol). 70 μL of the kinase reaction mixture was dispensed into the well of a streptavidin coated FlashPlate™ (Cat. # SMP 103, NEN, Boston, Mass.). Then 1 μL of test compound stock in 100% DMSO was added to the wells resulting in a final concentration of 1% DMSO in the reaction with a 100 μl final reaction volume. Next, CDK1:Cyclin-B protein (New England Biolads, infra) was diluted in 50 mM Tris-HCl pH=8.0, 0.1% BSA at a concentration of 1 ng per μL and 30 μl (30 ng enzyme per test well) was added to each well to initiate the reaction. The reaction was incubated for one hour at 30° C. At the end of the 1-hour incubation, the reaction was terminated by aspirating the reaction mixture from the plate and washing the wells twice with PBS containing 100 mM EDTA. The histone-H1 biotinylated peptide substrate became immobilized on the Flashplate™ (Perkin Elmer, NEN Boston, Mass.) and the incorporation of ^33P-γ-ATP was measured by reading the plate on a scintillation counter. Inhibition of the enzymatic activity of CDK1 was measured by observing a reduced amount of ^33P-γ-ATP incorporated into the immobilized peptide.
Assays to test compound inhibition of other kinases were preformed using methods that measure the amount of phosphorylation of a biotinylated peptide substrate. Biotinylated peptide substrates were selected from the literature as appropriate for the enzyme being evaluated. The general procedure used to assay for kinase activity is as follows: a kinase reaction mix was prepared in 50 mM Tris-HCl pH=8, 10 mM MgCl2, 0.1 mM Na3VO4, 1 mM DTT, 10 μM ATP, 0.25–1 μM biotinylated peptide substrate, 0.2–0.8 μCuries per well ^33P-γ-ATP (2000–3000 Ci/mmol). Assay conditions vary slightly for each protein kinase, for example, insulin receptor kinase requires 10 mM MnCl2 for activity and Calmodulin-dependent protein kinase requires calmodulin and 2 mM CaCl2. The reaction mixture was dispensed into the wells of a streptavidin coated Flashplate and 1 μL test compound in 100% DMSO was added to a 100 μL reaction volume resulting in a final concentration of 1% DMSO in the reaction. Enzyme was diluted in 50 mM Tris-HCl pH=8.0, 0.1% BSA and added to each well. The reaction was incubated for one hour at 30° C. in the presence of a test compound. After one hour the reaction mix was aspirated from the plate and the plate was washed with PBS containing 100 mM EDTA. The plate was read on a scintillation counter to determine ^33P-γ-ATP incorporated into the immobilized peptide substrate. Test compounds were assayed in duplicate at 8 concentrations (100 μM, 10 μM, 1 μM, 100 nM, 10 nM, 1 nM, 100 pM, 10 pM). A maximum and minimum signal for the assay was determined on each plate. […] Known inhibitor compounds appropriate for the kinase being assayed were also included on each plate.
The form of VEGF-R (vascular endothelial growth factor receptor-2) used was a fusion protein containing a polyhistidine tag at the N-terminus followed by amino acids 786–1343 of the rat VEGF-R2 kinase domain (GenBank Accession #U93306). The form of CDK1 (cyclin dependent kinase 1) used was isolated from insect cells expressing both the human CDK1 catalytic subunit and its positive regulatory subunit cyclin B (CDK1:cyclin B protein, New England Biolabs, Beverly, Mass., Cat. #6020). The form of CDK4 (cyclin dependent kinase 4) used contains amino acids 769 to 921 of the mouse […] protein found in the GST-retinoblastoma protein construct (Santa Cruz Biotechnology, Santa Cruz, Calif.; Cat. #SC-4112). The form of EGF-R1 (epidermal growth factor receptor 1) used was purified from human A431 cell membranes (Sigma, St. Louis, Mo., Cat.# E3641). […]

[2] = system: HeLa cervical adenocarcinoma; test: Inhibition of cell proliferation, 14C-thymidine incorporation, HeLa; assay type: cell-based; conditions: Homo sapiens
Experimental: The ability of a test compound to inhibit the proliferation of cell growth was determined by measuring incorporation of ^14C-labelled thymidine into newly synthesized DNA within the cells. This method was used on cell lines derived from carcinomas originating from several tissues such as HeLa cervical adenocarcinoma (American Type Culture Collection (ATCC), Virginia, Cat. #CCL-2), HCT-116 colon carcinoma (CCL-247), MDA-MB-231 (Xenogen Corp.), PC-3 prostate adenocarcinoma (ATCC CRL-1435) and A375 malignant melanoma (ATCC CRL-1619).
Using this method, the effect of a compound on cell growth of cells with many different phenotypes can be determined. Cells were trypsinized and counted and 3000–8000 cells were added to each well of a 96-well CytoStar tissue culture treated scintillating microplate (Amersham #RPNQ0160) in complete medium in a volume of 100 μl. Cells were incubated for 24 hours in complete medium at 37° C. in an atmosphere containing 5% CO2. 1 μL of test compound in 100% DMSO was then added to the wells of the plate. DMSO only was added to control wells. Cells were incubated for 24 more hours in complete medium at 37° C. in an atmosphere containing 5% CO2. […] The degree of methyl ^14C-thymidine incorporation was quantified on a Packard Top Count.

T1 sequence (P06493 whole entry): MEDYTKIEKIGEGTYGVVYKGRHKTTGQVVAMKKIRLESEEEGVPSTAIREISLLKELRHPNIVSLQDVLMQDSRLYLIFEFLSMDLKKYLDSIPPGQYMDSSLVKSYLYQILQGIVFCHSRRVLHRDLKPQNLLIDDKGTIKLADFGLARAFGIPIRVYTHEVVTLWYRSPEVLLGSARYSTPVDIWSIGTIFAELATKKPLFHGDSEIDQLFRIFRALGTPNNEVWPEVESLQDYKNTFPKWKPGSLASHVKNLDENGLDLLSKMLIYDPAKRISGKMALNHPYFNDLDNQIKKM
T1 sequence (P14635 whole entry partner): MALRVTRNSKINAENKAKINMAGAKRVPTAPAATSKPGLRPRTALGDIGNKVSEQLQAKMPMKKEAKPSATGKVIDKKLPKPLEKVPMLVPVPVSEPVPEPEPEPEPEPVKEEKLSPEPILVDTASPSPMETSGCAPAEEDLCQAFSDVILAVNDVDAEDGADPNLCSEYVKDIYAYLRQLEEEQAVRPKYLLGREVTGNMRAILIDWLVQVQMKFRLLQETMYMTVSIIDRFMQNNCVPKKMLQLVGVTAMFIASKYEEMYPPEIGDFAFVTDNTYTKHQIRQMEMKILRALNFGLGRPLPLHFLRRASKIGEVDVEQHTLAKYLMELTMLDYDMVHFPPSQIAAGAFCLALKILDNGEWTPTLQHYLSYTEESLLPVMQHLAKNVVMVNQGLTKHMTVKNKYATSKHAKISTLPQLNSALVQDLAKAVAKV

SMILES | IC50 [1] [nM] | IC50 [2] [nM]
OCCCNc1cc(-c2ncnc(Nc3cccc(Cl)c3)n2)ccn1 [Compound 2, 3-((4-(4-((3-chlorophenyl)amino)-1,3,5-triazin-2-yl)-2-pyridinyl)amino)-1-propanol] | 16 | 105
OCCCNc1cncc(-c2ncnc(Nc3cccc(Cl)c3)n2)c1 [Compound 1, 3-((5-(4-((3-chlorophenyl)amino)-1,3,5-triazin-2-yl)-3-pyridinyl)amino)-1-propanol] | 39 | 298

— patent publication US7205298B2, “Substituted triazine kinase inhibitors” (Janssen Pharmaceutica N.V., priority 2002, dated 2007)
